Source: US11149035B2, “Chemical compounds as H—PGDS inhibitors” (GlaxoSmithKline Intellectual Property Development Limited, priority 2017, dated 2021)

Molecular target: T1, haematopoietic prostaglandin D synthase (H-PGDS) (Homo sapiens, UniProt O60760)
T1 construct: Full length human H-PGDS cDNA (Invitrogen Ultimate ORF IOH13026) was amplified by PCR; 6-His (N); TEV protease cleavage site (N); made in house; host or cells: E. coli BL21 (DE3*)
Experiment: H-PGDS RapidFire high throughput mass spectrometry assay (conversion of PGH2 to PGD2)
Assay type: biochemical
Conditions: 10 nM H-PGDS, PGH2 formed in situ by COX-2 from arachidonic acid; four parameter curve fit; read-out: Potency Range (mean pIC50) (converted)
Method: The H-PGDS RapidFire™ mass spectrometric assay monitors conversion of prostaglandin H2 (PGH2) to prostaglandin D2 (PGD2) by haematopoietic prostaglandin D synthase (H-PGDS). In the assay format described here, the substrate (PGH2) is formed in situ by the action of cyclooxygenase-2 on arachidonic acid. This first step is set up to be fast, and generates a burst of PGH2 at ˜10 μM. The PGH2 is then further converted to PGD2 by the H-PGDS enzyme. […] Plates are then read on the RapidFire™ high throughput solid phase extraction system (Agilent) which incorporates a solid phase extraction step coupled to a triple quadrupole mass spectrometer (AB SCIEX). Relative levels of PGD2 and PGF2α, which acts as a surrogate for substrate, are measured and a percent conversion calculated. Inhibitors are characterised as compounds which lower the conversion of PGH2 to PGD2.
Full length human H-PGDS cDNA (Invitrogen Ultimate ORF IOH13026) was amplified by PCR with the addition of a 5′ 6-His tag and TEV protease cleavage site. The PCR product was digested with NdeI and XhoI and ligated into pET22b+ (Merck Novagen®). Expression was carried out in E. coli strain BL21 (DE3*) using auto-induction Overnight Express™ Instant TB medium (Merck Novagen®) supplemented with 1% glycerol. The culture was first grown at 37° C. and the temperature was reduced to 25° C. when OD600 reached 2.0. Cells were harvested by centrifugation after a further 18 hours. 10 g of E. coli cell pellet was suspended to a total volume of 80 mL in lysis buffer (20 mM Tris-Cl pH 7.5, 300 mM NaCl, 20 mM imidazole, 5 mM β-mercaptoethanol, 10% glycerol). 1 mg/mL protease inhibitors (Protease Inhibitor Cocktail Set III, Merck Calbiochem®) and 1 mg/mL lysozyme were added to the cell suspension. The suspension was then sonicated for 5 min (UltraSonic Processor VCX 750, Cole-Parmer Instrument Co.) with a micro probe (50% amplitude, 10 sec on/off) and then centrifuged at 100,000 g for 90 minutes (at 4° C.). The supernatant was loaded onto a Ni-NTA HiTrap column (5 mL, GE Healthcare, pre-equilibrated in lysis buffer). The column was washed with 10 column volumes of lysis buffer and eluted with lysis buffer containing 500 mM imidazole. The pooled protein peak fractions were concentrated using a 10 kDa centrifugal filter at 3500 g and 4° C. (Amicon Ultra-15 centrifugal filter unit with Ultracel-10 membrane from Millipore). Further purification of the concentrated protein was carried out using gel filtration chromatography on a HiLoad 26/600 Superdex 75 preparative grade column (GE Healthcare Life Sciences) using 50 mM Tris pH 7.5, 50 mM NaCl, 1 mM dithiothreitol, 1 mM MgCl2. Fractions containing the protein were pooled, concentrated as described above, and stored at −80° C.
The full length human COX-2 gene (accession number L15326) was amplified by PCR to generate an EcoRI—HindIII fragment containing an in-frame FLAG tag. This was subcloned into pFastBac 1 (Invitrogen). The COX-2 FLAG plasmid was recombined into the baculovirus genome according to the BAC-to-BAC protocol described by Invitrogen. Transfection into Spodoptera frugiperda (Sf9) insect cells was performed using Cellfectin (Invitrogen), according to the manufacturer's protocol. Super Sf9 cells were cultured in EX420 media (SAFC Biosciences) to a density of approximately 1.5×10^6 cells/mL within a wave bioreactor. Recombinant virus was added at a Multiplicity of Infection (MOI) of 5 and the culture was allowed to continue for 3 days. Cells were harvested using a continuous feed centrifuge run at 2500 g at a rate of approximately 2 L/min with cooling. The resultant cell slurry was re-centrifuged in pots (2500 g, 20 min, 4° C.) and the cell paste was stored at −80° C. 342 g of cell paste was re-suspended to a final volume of 1600 mL in a buffer of 20 mM Tris-Cl pH 7.4, 150 mM NaCl, 0.1 mM EDTA, 1.3% w/v n-octyl-[…] containing 20 Complete EDTA-free Protease Inhibitor Cocktail tablets (Roche Applied Science). […]

T1 sequence (O60760 whole entry): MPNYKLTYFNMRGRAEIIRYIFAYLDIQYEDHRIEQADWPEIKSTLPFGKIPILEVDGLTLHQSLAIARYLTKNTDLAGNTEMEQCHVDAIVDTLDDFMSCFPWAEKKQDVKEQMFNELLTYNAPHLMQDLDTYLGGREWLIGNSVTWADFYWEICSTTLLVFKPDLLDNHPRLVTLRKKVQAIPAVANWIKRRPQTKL

Row | Structure (SMILES) | IC50 [nM]
1 | C[C@H]1CCN1c1cc2ncc(C(=O)NC3CCN(C(=O)C(C)(C)O)CC3)cc2cn1 [Example 24, (S)—N-(1-(2-Hydroxy-2-methylpropanoyl)piperidin-4-yl)-7-(2-methylazetidin-1-yl)-1,6-naphthyridine-3-carboxamide] | 10 to 79.4
2 | CC(C)(O)[C@H]1CC[C@H](NC(=O)c2cnc3nc(N4CCC4)c(Cl)cc3c2)CC1 [Example 25, 7-(Azetidin-1-yl)-6-chloro-N-(trans-4-(2-hydroxypropan-2-yl)cyclohexyl)-1,8-naphthyridine-3-carboxamide] | < 10
3 | C[C@H]1CCN1c1cc2ncc(C(=O)N[C@H]3C[C@H](C(C)(C)O)C3)cc2cn1 [Example 26, N-(trans-3-(2-Hydroxypropan-2-yl)cyclobutyl)-7-((S)-2-methylazetidin-1-yl)-1,6-naphthyridine-3-carboxamide] | 10 to 79.4
4 | CC(C)(O)[C@H]1CC[C@H](NC(=O)c2cnc3nc(C4CC4)c(Cl)cc3c2)CC1 [Example 27, 6-Chloro-7-cyclopropyl-N-((trans)-4-(2-hydroxypropan-2-yl)cyclohexyl)-1,8-naphthyridine-3-carboxamide] | < 10
5 | C[C@@H]1CNC(=O)[C@H]1NC(=O)c1cnc2cc(N3CC[C@@H]3C)ncc2c1 [Example 28, N-((3S,4R)-4-Methyl-2-oxopyrrolidin-3-yl)-7-((S)-2-methylazetidin-1-yl)-1,6-naphthyridine-3-carboxamide] | 10 to 79.4
6 | O=C(N[C@H]1CCNC1=O)c1cnc2cc(C3CC3)ncc2c1 [Example 29, (S)-7-Cyclopropyl-N-(2-oxopyrrolidin-3-yl)-1,6-naphthyridine-3-carboxamide] | 10 to 79.4
7 | C[C@]1(O)CC[C@H](NC(=O)c2cnc3cc(C4CC4)ncc3c2)CC1 [Example 30, 7-Cyclopropyl-N-((1r,4r)-4-hydroxy-4-methylcyclohexyl)-1,6-naphthyridine-3-carboxamide] | 100 to 1000
8 | C[C@]1(O)C[C@@H](NC(=O)c2cnc3cc(C4CC4)ncc3c2)C1 [Example 31, 7-Cyclopropyl-N-((1s,3s)-3-hydroxy-3-methylcyclobutyl)-1,6-naphthyridine-3-carboxamide] | 100 to 1000
9 | CC(C)(O)[C@H]1C[C@H](NC(=O)c2cnc3cc(C4CC4)ncc3c2)C1 [Example 32, 7-Cyclopropyl-N-(trans-3-(2-hydroxypropan-2-yl)cyclobutyl)-1,6-naphthyridine-3-carboxamide] | 10 to 79.4
10 | O=C(N[C@H]1CC[C@@](O)(C(F)F)CC1)c1cnc2cc(C3CC3)ncc2c1 [Example 33, 7-Cyclopropyl-N-((1r,4r)-4-(difluoromethyl)-4-hydroxycyclohexyl)-1,6-naphthyridine-3-carboxamide] | 100 to 1000
11 | O=C(N[C@H]1CC[C@H](N2CC(F)C2)CC1)c1cnc2cc(C3CC3)ncc2c1 [Example 35, 7-Cyclopropyl-N-(trans-4-(3-fluoroazetidin-1-yl)cyclohexyl)-1,6-naphthyridine-3-carboxamide] | 10 to 79.4
12 | O=C(N[C@H]1CC[C@](O)(C(F)F)CC1)c1cnc2cc(C3CC3)ncc2c1 [Example 36, 7-Cyclopropyl-N-((1s,4s)-4-(difluoromethyl)-4-hydroxycyclohexyl)-1,6-naphthyridine-3-carboxamide] | 100 to 1000
13 | O=C(N[C@H]1CC[C@H](N[C@H](CO)C(F)(F)F)CC1)c1cnc2cc(C3CC3)ncc2c1 [Example 37, 7-Cyclopropyl-N-((trans)-4-(((R)-1,1,1-trifluoro-3-hydroxypropan-2-yl)amino)cyclohexyl)-1,6-naphthyridine-3-carboxamide] | 10 to 79.4
14 | O=C(N[C@H]1CC[C@H](N2CC(F)(F)C2)CC1)c1cnc2cc(C3CC3)ncc2c1 [Example 38, 7-Cyclopropyl-N-(trans-4-(3,3-difluoroazetidin-1-yl)cyclohexyl)-1,6-naphthyridine-3-carboxamide] | 10 to 79.4
15 | O=C(N[C@H]1C[C@](O)(C(F)(F)F)C1)c1cnc2cc(C3CC3)ncc2c1 [Example 40, 7-Cyclopropyl-N-((1s,3s)-3-hydroxy-3-(trifluoromethyl)cyclobutyl)-1,6-naphthyridine-3-carboxamide] | 100 to 1000
16 | C[C@]1(O)C[C@H](NC(=O)c2cnc3cc(C4CC4)ncc3c2)C1 [Example 41, 7-Cyclopropyl-N-((1r,3s)-3-hydroxy-3-methylcyclobutyl)-1,6-naphthyridine-3-carboxamide] | 100 to 1000
17 | O=C(N[C@H]1C[C@@H](N[C@H](CO)C(F)(F)F)C1)c1cnc2cc(C3CC3)ncc2c1 [Example 42, 7-Cyclopropyl-N-(cis-3-(((R)-1,1,1-trifluoro-3-hydroxypropan-2-yl)amino)cyclobutyl)-1,6-naphthyridine-3-carboxamide] | 100 to 1000
18 | O=C(N[C@H]1C[C@H](N[C@H](CO)C(F)(F)F)C1)c1cnc2cc(C3CC3)ncc2c1 [Example 43, 7-Cyclopropyl-N-(trans-3-(((R)-1,1,1-trifluoro-3-hydroxypropan-2-yl)amino)cyclobutyl)-1,6-naphthyridine-3-carboxamide] | 100 to 1000
19 | O=C(N[C@H]1CCNC1=O)c1cnc2nc(C3CC3)ccc2c1 [Example 44, (S)-7-Cyclopropyl-N-(2-oxopyrrolidin-3-yl)-1,8-naphthyridine-3-carboxamide] | 10 to 79.4
20 | C[C@]1(O)C[C@@H](NC(=O)c2cnc3nc(C4CC4)ccc3c2)C1 [Example 45, 7-Cyclopropyl-N-((1s,3s)-3-hydroxy-3-methylcyclobutyl)-1,8-naphthyridine-3-carboxamide] | 100 to 1000
21 | C[C@]1(O)C[C@H](NC(=O)c2cnc3nc(C4CC4)ccc3c2)C1 [Example 46, 7-Cyclopropyl-N-((1r,3s)-3-hydroxy-3-methylcyclobutyl)-1,8-naphthyridine-3-carboxamide] | 100 to 1000
22 | CC(C)(O)[C@H]1C[C@H](NC(=O)c2cnc3nc(C4CC4)ccc3c2)C1 [Example 47, 7-Cyclopropyl-N-(trans-3-(2-hydroxypropan-2-yl)cyclobutyl)-1,8-naphthyridine-3-carboxamide] | 10 to 79.4
23 | C[C@]1(O)CC[C@H](NC(=O)c2cnc3nc(C4CC4)ccc3c2)CC1 [Example 48, 7-Cyclopropyl-N-((1r,4r)-4-hydroxy-4-methylcyclohexyl)-1,8-naphthyridine-3-carboxamide] | 10 to 79.4
24 | COc1ccc2cc(C(=O)N[C@H]3CC[C@H](C(C)(C)O)CC3)cnc2n1 [Example 50, N-(trans-4-(2-Hydroxypropan-2-yl)cyclohexyl)-7-methoxy-1,8-naphthyridine-3-carboxamide] | 10 to 79.4
25 | COc1cc2ncc(C(=O)N[C@H]3CC[C@H](C(C)(C)O)CC3)cc2cn1 [Example 51, N-(trans-4-(2-Hydroxypropan-2-yl)cyclohexyl)-7-methoxy-1,6-naphthyridine-3-carboxamide] | 10 to 79.4
26 | O=C(N[C@H]1CC[C@@](O)(C(F)F)CC1)c1cnc2nc(C3CC3)ccc2c1 [Example 52, 7-Cyclopropyl-N-((1r,4r)-4-(difluoromethyl)-4-hydroxycyclohexyl)-1,8-naphthyridine-3-carboxamide] | 100 to 1000
